Experimental data published in patent US11311014B2, “Crystalline forms of ethyl[3-[2-chloro-4-fluoro-5-(1-methyl-6-trifluoromethyl-2,4-dioxo-1,2,3,4-tetrahydropyrimidin-3-yl)phenoxy]-2-pyridyloxy]acetate” (BASF SE, priority 2017, dated 2022).

How the values were obtained:
[1] = Stability of modifications suspended in solvent (conversion of crystal modification); type: physicochemical
Description: (§1) Studies on the Stability of the modifications of compound of formula (I)
A mixture of forms A and B was suspended in ethanol at 25° C.
Form C.II.1 (consisting of 30 wt. % of form A and 70 wt. % of form D) was suspended in ethanol at 25° C.
Form C.II.1 (consisting of 30 wt. % of form A and 70 wt. % of form D) was suspended in iso-propanol at 25° C.
Form CII.1 (consisting of 30 wt. % of form A and 70 wt. % of form D) was suspended in iso-propanol at 50° C.

[2] = Storage stability of dry powder at room temperature (conversion of crystal modification); type: physicochemical; settings: about 6 weeks
Excerpt: as §1

## CCOC(=O)COc1ncccc1Oc1cc(-n2c(=O)cc(C(F)(F)F)n(C)c2=O)c(F)cc1Cl [Form C.II.1]
[1]; suspended in ethanol at 25° C., after 7 days
  Stability of the modification: phase conversion in suspension: converted into form A
[1]; suspended in iso-propanol at 25° C., after 7 days
  Stability of the modification: phase conversion in suspension: converted into form A
[1]; suspended in iso-propanol at 50° C., after 7 days
  Stability of the modification: phase conversion in suspension: converted into form A

## CCOC(=O)COc1ncccc1Oc1cc(-n2c(=O)cc(C(F)(F)F)n(C)c2=O)c(F)cc1Cl [form B, ethyl[3-[2-chloro-4-fluoro-5-(1-methyl-6-trifluoromethyl-2,4-dioxo-1,2,3,4-tetrahydropyrimidin-3-yl)phenoxy]-2-pyridyloxy]acetate]
[2]
  Stability of the modification: phase conversion during storage: converts partially into form A

## CCOC(=O)COc1ncccc1Oc1cc(-n2c(=O)cc(C(F)(F)F)n(C)c2=O)c(F)cc1Cl [mixture of forms A and B]
[1]; suspended in ethanol at 25° C., after 5 days
  Stability of the modification: phase conversion in suspension: converted into form A
